Measurements taken from patent publication US5246932A, “Heterocyclic compounds” (Imperial Chemical Industries PLC, priority 1991, dated 1993).

How the values were obtained:
[1] = biological target: adenosine receptor known as A2; experiment: Guinea-pig Aortic Constriction Test; assay type: biochemical; details: antagonism of adenosine relaxation of phenylephrine-constricted guinea-pig aortic ring
Source text: (b) Guinea-pig Aortic Constriction Test
This test has been described by Collis et al. (British J. Pharmacology, 1989, 97, 1274-1278) and involves the assessment of the ability of a test compound to antagonise the attenuatory effect of adenosine on phenylephrine induced constriction of a guinea-pig aortic ring preparation, an effect mediated via the adenosine receptor known as A2.
The aortic ring preparation is obtained as follows:- Sections (3-5 mm) of guinea pig thoracic aorta (from Dunkin Hartley strain, 250-400 g males) are mounted in organ baths containing oxygenated Krebs solution (95% O2 : 5% CO2) at 37° C. [The nucleoside transport inhibitor, dipyridamole (10 μM) is present in the Krebs solution]. The isometric tension development is recorded and the tissue placed under a resting tension of 1 g and allowed to equilibrate for 1 hour. […] Adenosine is next added cumulatively (10^-7 M to 10^-3 M) and the evoked relaxation is measured. […]
Test compounds are assessed by plotting the percentage relaxation observed against the logarithm of the adenosine concentration, competitive adenosine antagonism producing a parallel shift in the standard adenosine concentration/relaxation (dose response) curve. […] The pA2 value, which is an estimate of the concentration of antagonist to give a dose ratio of 2, may also be calculated using a standard computation technique.

[2] = system: vasodilation response during twitch contraction of skeletal muscle; experiment: Anaesthetised cat exercise hyperaemia test; assay type: in vivo; details: 10 mg.kg^-1
Procedure: f) Anaesthetised cat exercise hyperaemia test
This test involves assessment of the effect of a test compound to antagonise the vasodilation response which occurs during twitch contraction of skeletal muscle. The vasodilation is mediated partly by the release of endogenous adenosine from the contracting skeletal muscle.
Cats (2.4-3.6 kg) are anaesthetised with sodium pentobarbitone (50 mg.kg^-1 ip). The following blood vessels are catheterized: left jugular vein (for infusion of anaesthetic, at approximately […] as a 6 mg.ml^-1 solution in isotonic saline), right external jugular vein (for administration of drugs and test compounds), right common carotid artery (for measurement of systemic arterial blood pressure and pulse rate) and right brachial artery (for withdrawal of blood).
Blood flow to the left hind limb is measured with an electromagnetic flow probe around the left external iliac artery. The whole of the left hind limb is made to contract at 3 Hz for 20 minutes duration by stimulating the sciatic and femoral nerves. Active tension produced by the extensor digitorum longus and peroneous longus muscles is measured isometrically with a force transducer. Exercise is repeated twice within the same animal, in either the absence or presence of the test compound. Test compounds are assessed for their ability to reduce the vasodilatation during skeletal muscle contraction.

[3] = biological target: T1, A2 Adenosine receptor (Rattus norvegicus, UniProt P30543); experiment: A2 Adenosine receptor affinity test ([3H]-NECA displacement, PC12 membranes); assay type: binding; details: rat PC12 cell membranes, 30° C., 90 minutes
T1 construct: membrane preparations derived from the rat phaeochromocytoma cell line PC 12; host or cells: PC 12 (rat phaeochromocytoma) membranes
T1 sequence (P30543 whole entry): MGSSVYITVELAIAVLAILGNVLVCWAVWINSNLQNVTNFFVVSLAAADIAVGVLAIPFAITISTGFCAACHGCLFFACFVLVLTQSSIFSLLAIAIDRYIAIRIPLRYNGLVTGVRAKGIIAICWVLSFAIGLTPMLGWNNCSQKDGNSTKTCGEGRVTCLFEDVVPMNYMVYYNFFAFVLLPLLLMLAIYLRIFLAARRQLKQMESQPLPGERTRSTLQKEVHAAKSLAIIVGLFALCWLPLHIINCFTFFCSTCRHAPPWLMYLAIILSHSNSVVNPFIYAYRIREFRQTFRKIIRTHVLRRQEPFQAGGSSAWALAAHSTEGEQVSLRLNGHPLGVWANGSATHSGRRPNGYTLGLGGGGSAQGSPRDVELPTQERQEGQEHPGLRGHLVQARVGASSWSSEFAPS
Procedure: The separated cells are then suspended in hypotonic solution (distilled water), allowed to stand on ice for 30 minutes and are then carefully homogenized using a standard high-speed homogeniser with periodic ice-cooling to obtain a fine suspension. […] The mixture is then incubated at 37° C. After 20 minutes, the reaction is terminated by dilution with ice-cold buffer and transfer onto ice. The material obtained containing the cell membranes is recovered by centrifugation and washed by resuspension in buffer and recentrifugation. The pellet produced is then resuspended in ice-cold buffer using a hand-driven homogenizer. The resultant membrane suspension is frozen and stored under liquid nitrogen until required.
After incubation, the samples are rapidly filtered over glass-fibre mats and the filter mats are washed to remove non-receptor-bound radioligand. Receptor-bound radioligand entrapped on the filter mats is then determined by liquid scintillation counting. Filtration and washing are carried out using a conventional vacuum filtration cell harvester. The specific binding (defined as the difference between the total binding and the non-specific binding) in the presence of the particular test compound is determined and compared with the control value.

[4] = biological target: T2, adenosine receptor known as A1 (Cavia porcellus, UniProt P47745); experiment: Guinea-pig Atrial Bradycardic Test; assay type: biochemical; details: antagonism of 2-chloroadenosine bradycardia in beating guinea-pig atrial pair; read-out: pA2 (converted)
T2 construct: Atrial pairs are obtained from guinea-pigs (Dunkin Hartley strain); from tissue; host or cells: guinea-pig spontaneously beating atrial pairs (Dunkin Hartley)
T2 sequence (P47745 1-326): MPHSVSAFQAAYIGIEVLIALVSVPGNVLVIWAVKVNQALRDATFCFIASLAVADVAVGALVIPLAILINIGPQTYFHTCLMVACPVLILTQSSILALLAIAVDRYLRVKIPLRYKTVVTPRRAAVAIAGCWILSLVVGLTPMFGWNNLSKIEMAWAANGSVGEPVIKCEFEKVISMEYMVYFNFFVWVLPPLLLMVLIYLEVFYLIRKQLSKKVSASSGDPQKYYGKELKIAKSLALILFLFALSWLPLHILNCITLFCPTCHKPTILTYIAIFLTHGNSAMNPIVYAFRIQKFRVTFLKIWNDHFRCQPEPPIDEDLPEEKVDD
Procedure: (c) Guinea-pig Atrial Bradycardic Test
The atrial pair preparation may be obtained as follows: Atrial pairs are obtained from guinea-pigs (Dunkin Hartley strain, 250-400 g males) and mounted in organ baths containing oxygenated Krebs buffer solution (95% O2; 5% CO2) at 37° C. The spontaneously beating atria are then placed under a resting tension of 1 g and allowed to equilibrate for 50 minutes with continuous overflow. Overflow is then stopped and adenosine deaminase (1 Unit/ml) added to prevent the accumulation of endogenously produced adenosine. After equilibration for 15 minutes, a cumulative dose response curve to the adenosine mimetic, 2-chloroadenosine(10^-8 M to 10^-4 M) is administered to produce a maximal slowing of atrial rate. After washout during 30 minutes, adenosine deaminase is readministered to the bath which is allowed to equilibrate for 15 minutes. A 10^-5 M solution of the test compound in DMSO is then added to the bath which is left to incubate for 30 minutes. Any effect on the beating rate due to the test compound is noted before the dose response curve to 2-chloroadenosine is repeated. Compounds which are adenosine antagonists attenuate the 2-chloroadenosine response.
Test compounds are assessed by comparing dose response curves to 2-chloroadenosine alone with those obtained in the presence of the compound. […]

IC50 [3] [nM]	Kb [4] [nM]	SMILES	pA2 [1]	inhibition of vasodilatation during skeletal muscle contraction [2]
		Cn1c(=O)c2[nH]cnc2n(C)c1=O [1,3-dimethylxanthine]	about 5	significant inhibition
~0.794	1000	Nc1nc(NCCc2ccc(Oc3nc(N)n4nc(-c5ccco5)nc4n3)cc2)nc2nc(-c3ccco3)nn12 [Example 1, 7-amino-5-[4-(2-[7-amino-2-(2-furyl)-[1,2,4]triazolo[1,5-a][1,3,5]triazin-5-ylamino]ethyl)phenoxy]-2-(2-furyl)[1,2,4]triazolo[1,5-a][1,3,5]triazine]		
